Patent US5608143A, “External regulation of gene expression” (E. I. Du Pont de Nemours and Company, priority 1994, dated 1997)

Experiments:
[1] = system: 2-1 gene (In 2-1 mRNA); test: RNA slot blot / Northern analysis of 2-1 mRNA in roots of chemically treated corn; type: in vivo, corn (Missouri 17); conditions: six hours, corn roots; for In 2-1: net amount of radioactivity hybridizing to treated RNA after subtraction of untreated RNA: 200 mg/l hydroponic, slot blot 2 μg total RNA
Procedure: Missouri 17 corn seeds were surface sterilized by soaking them in a solution of 10% commercial bleach and 0.1% sodium dodecylsulfate (SDS) for 30 minutes. Seeds were then rinsed thoroughly in a buchner funnel with sterile distilled water and prepared for germination by placing them onto 5-6 layers of moist sterile paper towels in a 8"×10" glass baking tray. The tray was covered with aluminum foil and placed in the dark in a 30° C. incubator for 48-72 hours to allow the seeds to germinate. After germination, seedlings were grown hydroponically in an apparatus consisting of a sheet of 8 mesh stainless steel wire gauze suspended over the top of a 2 liter glass beaker filled with sterile half strength Hoagland's solution (referred to 0.5× Hoagland's) so that the roots extended through the mesh and into the media. The hydroponic apparatus was aerated by introducing humidified air into the bottom of the beaker with a gas diffusing stone commonly used in tropical fish aquariums. The apparatus was covered with a loose-fitting sheet of aluminum foil and placed in a reach-in growth chamber illuminated by both fluorescent and incandescent lamps at an intensity of 4400 lux. Seedlings were grown at 28° C., 75% relative humidity using a 16 hour day/8 hour night cycle. After two days, the foil was removed and plants were grown for an additional 5-6 days. Any 0.5× Hoagland's lost to evaporation was replenished every 2-3 days. […] Plants were then allowed to grow for six additional hours prior to harvest.
A nitrocellulose filter (Schlicher and Schull BA-85) was wetted by soaking it twice for 10 minutes in water, followed by a 10 minute soak in 1M ammonium acetate. The filter was then placed into a Slot Blot apparatus (Schleicher and Schuell, Inc., Keene, N.H. 03431, CAT #SRC072/0). […] Forty pl of denaturation buffer (30% formaldehyde, 100 mM sodium phosphate pH 6.8) were added to each sample and all samples were then incubated at 65° C. for 20-30 minutes and quick-cooled in an ice slurry for 5 minutes. Thirty μl of 4M ammonium acetate were added to each sample and the 150 μl samples were added to slots in the blotting cell with the aid of a 10-15 mm Hg vacuum. The filter was removed from the blotting cell, air dried and baked for 2 hours at 70° C. in vacuo.
The filter was cut into six pieces such that each piece had one slot cox.raining RNA from each of the three treatments described above. One of the filter pieces was incubated with 10 ml of prehybridization buffer (50% deienized formamide, 5× SSC, 5× Denhardt's, 100 μg/ml denatured calf thymus DNA, 20 μg/ml homopoly(A), 40 mM sodium phosphate pH 6.8 and 0.5% BSA) in a heat-sealable bag for 6 hours at 42° C. with occasional mixing. The filter piece was then hybridized with nick-translated pIn 2-1. This was performed by discarding the prehybridization solution from the bag and replacing it with 2.5 ml of hybridization buffer (50% deionized formamide, 5× SSC, 100 μg/ml denatured calf thymus DNA, 20 μg/ml homopoly(A) and 40 mM sodium phosphate, pH 6.8) containing 1.25×10^7 cpm of nick translated 2-1 plasmid described above. Nick-translated plasmid was denatured by boiling for 10 minutes followed by quick-cooling on ice. The filter was then hybridized overnight at 42° C. with occasional mixing.

[2] = system: tobacco leaf pieces (callus formation); test: Callus formation of leaf pieces from kanamycin-resistant tobacco shoots on selective medium; type: cell-based; conditions: sixteen kanamycin-resistant shoots, three weeks; 10 ppb chlorsulfuron and/or 100 ppm D5293
Text: Callus formation was scored as plus or minus after three weeks of growth.

[3] = system: 5-2 gene (In 5-2 mRNA); test: RNA slot blot / Northern analysis of 5-2 mRNA in roots of chemically treated corn; type: in vivo, corn (Missouri 17); conditions: 200 mg/l hydroponic, six hours, corn roots, slot blot 2 μg total RNA
Procedure: Details of the techniques used to perform Example 3 are presented in Example 1. The cDNA library made from poly (A)+ RNA from the roots of N-(aminocarbonyl)-2-chlorobenzenesulfonamide-treated Missouri 17 corn plants described in Example 1 was analyzed for additional cDNA clones representing N-(aminocarbonyl)-2-chlorobenzenesulfonamide-induced mRNAs. […] This colony was designated In 5-2.
A small scale plasmid preparation was performed on an overnight culture of In 5-2 and an aliquot of the plasmid, designated pIn 5-2, was nick-translated as described earlier. Slot blot analysis was performed as described in Example 1 using nick-translated In 5-2 plasmid. […] This plasmid was designated pIn 5-2.
An aliquot of the small scale plasmid preparation of pIn 5-2 was digested to completion with PSt I and analyzed by agarose gel electrophoresis. The cDNA insert of the plasmid was excised as a single 420 bp Pst I fragment. Plasmid pin 5-2 was nick-translated and used to probe a Northern blot of RNA from both untreated and N-(aminocarbonyl)-2-chlorobenzenesulfonamide-treated roots.
(§1) The ability at various substituted benzenesulfonamides and related compound to induce the expression of the 2-1, 2-2, and 5-2 genes of Missouri 17 corn was evaluated. Corn seeds were germinated and grown hydroponically in 2 liter beakers as described in Example 1. On the tenth day, plants were transferred into fresh 0.5× Hoagland's solution containing the chemical to be tested. Root tissue was harvested from the plants after six hours of chemical treatment, quick-frozen by immersion in liquid N2, and stored at -80° C. until analyzed.
(§2) Details of the RNA isolation and slot blot analysis procedures are presented in Example 1. Total RNA was prepared from the root tissue of plants that had been treated with various chemicals using the previously described guanidine thiocyanate procedure. Replicate blots, each consisting of 2 μg of total RNA from tissues treated with each of the chemicals shown in tables 8 and 9, were prepared on nitrocellulose membranes using a Minifold II® Slot-blotter (Schleicher & Schuell) following the manufacturer's recommeneded procedure. Replicate blots were prehybridized and hybridized with cDNA probes made by nick translation of the purified cDNA inserts from plasmid pIn 2-1, pIn 2-2-3, and pIn 5-2. Slot blots were washed as described in Example 1 and exposed to Kodak X-OMAT XAR-5 film for 24 hours at -80° C. using a single Du Pont Lightning Plus intensifying screen. Film was developed using a Kodak X-OMAT film processor. The abililty of a chemical to induce the mRNA encoded by the three inducible genes was evaluated in one of two ways. Qualitative evaluation was performed by direct visual comparison of the autoradiographic signal intensities on the films for the hybridization of each probe to the different RNA samples. Quantitative evaluation was performed by cutting each slot containing hybridized RNA from the blot, immersing it in 2 ml of Du Pont ECONOFLUOR® scintillation cocktail and counting the radioactivity in each slot in a scintillation counter. The net amount of radioactivity hybridizing to N-(aminocarbonyl)-2-chlorobenzenesulfonamide-treated RNA after subtraction of radioactivity hybridizing to untreated RNA is presented in Table 15.

[4] = system: 2-2 gene (In 2-2 mRNA); test: RNA slot blot / Northern analysis of 2-2 mRNA in roots of chemically treated corn; type: in vivo, corn (Missouri 17); conditions: 200 mg/l hydroponic, six hours, corn roots, slot blot 2 μg total RNA
Procedure: Details of the techniques used to perform the procedures used in Example 2 are presented in Example 1. The cDNA library made using poly(A)^+ RNA from the roots of N-(aminocarbonyl)-2-chlorobenzenesulfonamide-treated Missouri 17 corn plants (described in Example 1) was analyzed for additional cDNA clones representing mRNAs induced by substituted benzenesulfonamides. […] This colony was designated In 2-2.
A small scale plasmid preparation was performed on the plasmid contained in colony In 2-2. This plasmid was designated pIn 2-2. An aliquot of pIn 2-2 was nick translated as described earlier. A slot blot containing total RNA from N-(aminocarbonyl)-2-chlorobenzenesulfonamide-treated and untreated roots was prepared and probed with nick-translated pIn 2-2 as described for pIn 2-1 in Example 1.
The pIn 2-2 small scale plasmid preparation was digested to completion with Pst I and analyzed by agarose gel electrophoresis. The cDNA insert of the plasmid was excised by Pst I as a single 1200 bp fragment. Nick-translatedpIn 2-2 was used to probe a Northern blot of RNA from both untreated and N-(aminocarbonyl)-2-chlorobenzenesulfonamide-treated roots.
as §1, §2

[5] = system: 2-2 corn promoter; test: Transient GUS expression assay, 2-2 corn promoter/GUS constructions in transformed rice protoplasts
Procedure: Cell counts were made with a Fuchs-Rosenthal hemocytometer.
Protoplasts were transformed as follows: Multiple aliquots of the protoplasts (5-10×10^6 cells) were centrifuged gently (80 g) for 4 minutes in sterile tubes. The supernatant was discarded and the cells were resuspended in 1 ml of Kern's F, pH 5.8 buffer. Ten μg of transforming DNA in less than 15 μl of TE pH 8.0 were added per million protoplasts. […] The resulting protoplast cell suspension was mixed gently and incubated at room temperature for 20 minutes. A volume of 13-15 mls of Kren's F, pH 7.0 solution was then added to dilute out PEG.
The transformed protoplasts were collected by centrifugation at 80 g for 4 minutes. The supernatant was discarded and the protoplasts were resuspended in 2.0 ml of Kren's F, pH 5.8. The protoplast sample was divided into two 1 ml aliquots. One ml of protoplast medium was added to one aliquot of the protoplasts, while 1 ml of the protoplast medium containing 100 μg/ml N-(aminocarbonyl)-2-chlorobenzenesulfonamide was added to the other aliquot.
The inducibility of the recombinant GUS genes whose expression were controlled by 2-1 corn gene promoter and downstream sequences were determined by measuring the level of the β-glucuronidase enzyme activity in protoplasts cultured in the presence and absence of N-(aminocarbonyl)-2-chlorobenzenesulfonamide. GUS activity was assayed by harvesting protoplasts in a clinical centrifuge at 80 g for 5 minutes, and resuspending them in 1.0 ml 1× GUS lysis buffer (50 mM sodium phosphate pH 7.0, 10 mM β-mercaptoethanol, 10 mM EDTA, 0.1% Triton X-100, 0.1% N-lauroylsarcosine). The suspension containing the lysed protoplasts was vortexed and spun at top speed in a table top clinical centrifuge for 5 minutes. Eighteen μl of the supernatant was transferred to a tube containing 782 μl of water for determination of protein content in the protoplast lysate. […] A protein concentration curve was prepared using bovine serum albumin as a standard. The protein content, so determined, was multiplied by a factor of 7.2 to give the protein content in 130 μl of extract (the amount of extract present in a single time point of the assay-see below). Of the remaining supernatant,585 μl was transferred to a fresh tube.
The substrate for the GUS assay was 4-methyl-umbelliferyl-β-D-glucuronide (4-MUG) and was obtained from Sigma Chemical Co., St. Louis Mo. […] 4-MUG was prepared as a 10 mM stock in 1× GUS buffer. Sixty-five μl of a pre-warmed (37° C.) 10 mM 4-MUG stock was added to the pre-warmed 585 μl protoplast extract, and a 100 μl aliquot of the resulting mixture was transferred to a well of a 24-well microtiter dish containing 0.9 ml of 0.2M Na2 CO3. Similar aliquots are removed at 1 hour, 2 hour, and 3 hours. The 4-MU flourescence of individual samples, from each time point was determined quantitatively using an excitation wavelength of 365 nm and measuring flourescence at an emission wavelength of 455 nm. […] GUS activity in the transient assay was expressed as picomoles of 4-MU produced per μg protein per hour.

[6] = system: metabolism of chlorsulfuron and metsulfuron methyl; conditions: wheat and corn following application of the antidote; cited from earlier work
[7] = system: petunia P6.1 gene (P6 RNA); test: Northern / RNAse protection analysis of P6 RNA in roots of chemically treated petunia; type: in vivo, Petunia (Mitchell); conditions: hydroponic 100 mg/l, roots
Text: Petunia (Mitchell) seeds were germinated in soil and allowed to grow for one month under standard greenhouse conditions. Plants were transferred to a hydroponic growth apparatus in a greenhouse using foam plugs to support the plants. These plugs were then placed in holes in a wooden bDard and placed over a stainless steel sink containing 0.5× Hoagland's solution. The solution was aerated using standard aquarium pumps, and was changed weekly. After one month of hydroponic growth, plants were transferred to stainless steel trays containing either fresh 0.5 × Hoagland's or 0.5× Hoagland's containing 0.2 g per liter of N-(aminocarbonyl)-2-chlorobenzenesulfonamide. Root tissue was harvested after six hours of treatment.
Ten μg (2 mg/ml) of total RNA from control and N-(aminocarbonyl)-2-chlorobenzenesulfonamide-treated roots was denatured by adding 10 μl of deionized formamide, 3.5 μl formaldehyde, 4 μl 5× MEN buffer (40 mM MOPS pH 7.0, 10 mM sodium acetate, 1 mM EDTA) and incubating at 65° C. for 15 minutes. […] RNA was stained in the presence of 10 mM sodium phosphate pH 6.8 and 1 μg/ml acridine orange for 30 minutes. The gel was then desrained in 10 mM sodium phosphate for 30 minutes, and the RNA was visualized on a UV transilluminator, photographed, and blotted to nitrocellulose (Millipore HAWP). To do this, Whatman 3MM paper was placed below the gel on a glass plate so that the ends of the paper extended into 20× SSC. A sheet of nitroccllulose which had been prewet with 2× SSC was placed on top of the gel followed by a layer of Whatman 3MM, then a stack of paper towels 10 cm high. A glass plate and weight were then placed on top of the stack. Following an overnight transfer, the filter was rinsed briefly in 2× SSC, air dried, and baked in vacuo for 2 hours at 80° C.
The filters were prehybridized for 5 hours in plastic dishes at 42° C. using the hybridization buffer described earlier. Plasmid p6.1 was nick-translated by combining 1 μg of DNA with 5 μl 10× buffer (0.5M Tris-HCl pH 8.0, 0.1M MgSO4, 10 mM DTT and 0.5 mg/ml BSA), 5 μl 0.3 uM d(AGT)TP, 5 μl ^32 P-dCTP (Amersham, 10 mCi/ml, 400 Ci/mmole), 1 μl DNA polymerase 1 (5 U/μl, Boehringer-Mannheim), and 1 μl of 0.1 μg/ml DNAse 1 in a total volume of 50 μl. […] The reaction was then incubated for 5 minutes at 70° C., and labelled DNA was separated from unincorporated nucleotides by Sephadex® G-50 column chromatography. The prehybridization solution was removed from the bag and replaced with hybridization solution containing nick-translated plasmid P6.1 DNA at a concentration of 1×10^6 cpm/ml. […] Filters were washed twice with 2× SSC, 0.1% SDS at 42° C. followed by two washes in 0.1× SSC, 0.1%SDS at 60° C.
RNA probes complementary to the coding strands in both P644 and P645 were synthesized in the following reaction: 50 uCi ^32 P-UTP, 2 μl 5× transcription buffer (200 mM Tris-HCl pH 7.5, 30 mM MgCl2, 10 mM spermidine), 0.5 μl 0.2M DTT, and 0.5 μl of either T3 polymerase (plasmid P645) or T7 polymerase (plasmid P644). Incubation was carried out at 40° C. for 1 hour. The DNA template was hydrolyzed for 15 minutes at 37° C. by addition of 30 μl H2 O, 1 μl RNAsin, 2,5 μl vanadyl ribonucleoside complex, 6 μl 5× transcription buffer and 1 μl DNAse 1 (1 mg/ml) to the transcription reaction. The reaction was extracted with an equal volume of phenol:chloroform (1:1 v/v). The RNA was precipitated once with ethanol in the presence of ammonium acetate and once with ethanol in the presence of sodium acetate. The pellets were dissolved in 25 μl of TE. Ten μg of RNA from untreated and N-(aminocarbonyl)-2-chlorobenzenesulfonamide-treated plants were mixed with 1×10^6 cpm of each of the two probes in 30 ul of hybridization buffer (40 mM PIPES pH 6.7, 0.4M NaCl, 1 mM EDTA). […] Single stranded RNA was selectively digested by adding 300 μl RNAse A and RNAse T1 to 40 μg/ml and 2 μg/ml respectively in 10 mM Tris-HCl pH 7.5, 5 mM EDTA, and 300 mM NaCl.

[8] = rice protoplasts transformed with pTDS133, compound at 100 μg/l

SMILES	AVE. INDUCTION [5, 8]	Assay 3 (induction of GUS activity) [5, 8]	also measured
NS(=O)(=O)c1ccccc1Cl [2-chlorobenzenesulfonamide, reference compound]	–	–	hybridization of pIn 2-1 to root RNA (RNA slot blot) ([1]; hydroponic 0.2 g/liter): extremely weakly, if at all
COc1nc(C)nc(NC(=O)NS(=O)(=O)c2ccccc2Cl)n1 [Chlorsulfuron, chlorsulfuron, reference compound]	–	–	Callus formation (shoots whose leaf pieces formed callus / shoots tested) [2]: 12/16
CCCCNC(=O)NS(=O)(=O)c1ccccc1P(=O)(OCC)OCC [Compound 1]	–	–	In 5-2: net amount of radioactivity hybridizing to treated RNA after subtraction of untreated RNA [3]: 47; In 2-1: net amount of radioactivity hybridizing to treated RNA after subtraction of untreated RNA [1]: 204; In 2-2: net amount of radioactivity hybridizing to treated RNA after subtraction of untreated RNA [4]: 332
CCCCNC(=O)NS(=O)(=O)c1cccc(Cl)c1S(=O)(=O)N(C)C [Compound 2 (Table 15), N'-[2-(n-butylaminocarbonyl)]-6-chloro-N,N-dimethyl-1,2-benzene-disulfonamide]	–	–	ability to induce GUS activity in transformed protoplasts (rank) ([5]; rice protoplasts transformed with pTDS133): most active
NC(=O)NS(=O)(=O)c1ccccc1Cl [Compound 5]	7.75	43	In 5-2: net amount of radioactivity hybridizing to treated RNA after subtraction of untreated RNA [3]: 59; Assay 1 (induction of GUS activity) [5, 8]: 8.7; Assay 2 (induction of GUS activity) [5, 8]: 6.8; In 2-1: net amount of radioactivity hybridizing to treated RNA after subtraction of untreated RNA [1]: 296; In 2-2: net amount of radioactivity hybridizing to treated RNA after subtraction of untreated RNA [4]: 136
CCCCNC(=O)NS(=O)(=O)c1ccoc1C(=O)OC [Compound 14]	27.3	27.3	–
CCCCNC(=O)NS(=O)(=O)c1cccc(C)c1S(=O)(=O)CCC [Compound 15]	24	24.1	–
C=CCN(CC=C)C(=O)C(Cl)Cl [N,N-diallyl-2,2-dichloroacetamide]	–	–	increases in the metabolism rates of chlorsulfuron and metsulfuron methyl [6]: 2 to 5 fold
O=C(O)c1ccccc1O [Salicylic acid, reference compound]	–	–	time at which P6 RNA level declined to that seen in untreated plants [7]: ≤ 6 h; time at which maximal levels of P6 RNA were seen ([7]; sampled at 2, 4, 6 and 22 hours): ≤ 2 h
N#CCON=C(C#N)c1ccccc1 [cyometrinil]	–	–	increases in the metabolism rates of chlorsulfuron and metsulfuron methyl [6]: 2 to 5 fold
O=C1OC(=O)c2cccc3cccc1c23 [napthalic anhydride]	–	–	increases in the metabolism rates of chlorsulfuron and metsulfuron methyl [6]: 2 to 5 fold

More lines, main results first:

AVE. INDUCTION [5, 8]	Assay 3 (induction of GUS activity) [5, 8]	SMILES	also measured
30	30.2	CCCCNC(=O)NS(=O)(=O)c1ccccc1S(=O)(=O)N(C)C(F)(F)C(F)F [Compound 16]	–
16.6	16.6	CNC(=O)NS(=O)(=O)c1c(C)cccc1OC [Compound 17]	–
1.6	1.6	CN(C)C(=O)c1cccnc1S(=O)(=O)NC(N)=O [Compound 18]	–
5.2	5.2	CCCCNC(=O)NS(=O)(=O)c1cnccc1Cl [Compound 19]	–
38.6	38.6	CCCNC(=O)NS(=O)(=O)c1ccccn1 [Compound 20]	–
24.2	24.2	CC(C)(C)NC(=O)NS(=O)(=O)c1ccc(Cl)nc1Cl [Compound 21]	–
